In ChEMBL document CHEMBL5154725, “SAR evolution towards potent C-terminal carboxamide peptide inhibitors of Zika virus NS2B-NS3 protease” (Bioorg Med Chem, 2022):
The source made the active and inactive calls. The rule behind the calls is not given here. Non-standard residues stand in square brackets, D forms with d. Residues, ends and D or L forms follow the SMILES beside them. *: point of attachment. Phe(4-CH2NH2) = NCc1ccc(C[C@H](N)C(=O)O)cc1; Phe(4-NH2) = Nc1ccc(C[C@H](N)C(=O)O)cc1; AEF = NCCOc1ccc(C[C@H](N)C(=O)O)cc1; Hydrocinnamoyl = O=C(CCc1ccccc1)*; Aad = N[C@@H](CCCC(=O)O)C(=O)O; PhAc = O=C(Cc1ccccc1)*; NHBn = c1ccc(CN*)cc1; NHCH2CH2OH = OCCN*

Assays:
Zika virus [1] = test: (§1) Inhibition of 6-His tagged-G4SG4 fused ZIKV NS2B (49 to 95 residues) R95A mutant-NS3 (1 to 170 residue) R29G mutant expressed in Escherichia coli BL21 (DE3) using Bz-Nle-K-RR-AMC substrate at 50 uM preincubated for 10 mins followed by substrate addition and measured after 30 mins by fluorescence assay relative to control; conditions: time 40.0 min
[2] = (§2) Inhibition of 6-His tagged-G4SG4 fused ZIKV NS2B (49 to 95 residues) R95A mutant-NS3 (1 to 170 residue) R29G mutant expressed in Escherichia coli BL21 (DE3) using Bz-Nle-K-RR-AMC substrate preincubated for 10 mins followed by substrate addition and measured after 30 mins by fluorescence assay; set-up: species or system Zika virus
Zika virus [3] = test: as §2; conditions: time 40.0 min
Zika virus [4] = test: as §1, with “100” for “50”; conditions: time 40.0 min
Zika virus [5] = test: Antiviral activity against ZIKV infected in African Green monkey Vero cells assessed as reduction in viral replication; type: functional, organism-based
[6] = Binding affinity to 6-His tagged-G4SG4 fused ZIKV NS2B (49 to 95 residues) R95A mutant-NS3 (1 to 170 residue) R29G mutant expressed in Escherichia coli BL21 (DE3) by surface plasmon resonance assay; set-up: species or system Zika virus
[7] = Stability of compound assessed 6-His tagged-G4SG4 fused ZIKV NS2B (49 to 95 residues) R95A mutant-NS3 (1 to 170 residue) R29G mutant expressed in Escherichia coli BL21 (DE3) based degradation by LC-HRMS analysis; type: ADME; conditions: zika virus
Zika virus [8] = test: as §2, with “(DE3) assessed as covalent adduct formation” for “(DE3)”, “LC-HRMS analysis” for “fluorescence assay”; conditions: time 40.0 min
Genome polyprotein = Genome polyprotein (dengue virus type 2, UniProt P29990); test: Inhibition of 6-His tagged-G4SG4 fused DENV2 NS2B (1394 to 1440 residues) -NS3 (1476 to 1660 residue) expressed in Escherichia coli BL21 (DE3) using Bz-Nle-K-RR-AMC substrate preincubated for 10 mins followed by substrate addition and measured after 30 mins by fluorescence assay
Sequence of Genome polyprotein (P29990 1346-1475 limits assumed): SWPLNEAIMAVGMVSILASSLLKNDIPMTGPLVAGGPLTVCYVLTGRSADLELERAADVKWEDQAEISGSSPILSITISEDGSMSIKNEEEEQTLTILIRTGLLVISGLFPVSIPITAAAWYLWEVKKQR
Sequence of Genome polyprotein (P29990 1476-2093 limits assumed): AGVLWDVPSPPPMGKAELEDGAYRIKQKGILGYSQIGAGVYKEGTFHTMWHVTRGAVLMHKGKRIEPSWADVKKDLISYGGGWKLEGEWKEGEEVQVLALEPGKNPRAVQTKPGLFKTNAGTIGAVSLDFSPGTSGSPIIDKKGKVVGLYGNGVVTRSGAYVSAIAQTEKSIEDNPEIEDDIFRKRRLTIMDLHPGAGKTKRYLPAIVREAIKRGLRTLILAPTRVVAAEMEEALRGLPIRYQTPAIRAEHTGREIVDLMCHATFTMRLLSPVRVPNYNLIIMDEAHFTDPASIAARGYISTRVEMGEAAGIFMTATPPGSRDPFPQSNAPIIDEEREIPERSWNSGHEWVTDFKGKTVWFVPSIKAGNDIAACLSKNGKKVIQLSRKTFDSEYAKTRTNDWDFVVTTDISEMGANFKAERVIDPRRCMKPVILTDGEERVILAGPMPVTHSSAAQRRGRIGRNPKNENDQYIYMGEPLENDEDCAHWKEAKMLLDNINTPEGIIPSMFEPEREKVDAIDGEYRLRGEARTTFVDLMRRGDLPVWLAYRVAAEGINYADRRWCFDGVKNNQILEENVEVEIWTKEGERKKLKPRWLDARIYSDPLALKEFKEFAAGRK

[9] = Inhibition of 6-His tagged-G4SG4 fused WNV NS2B (1423 to 1470 residues) -NS3 (1506 to 1689 residue) using pERTKR-AMC substrate preincubated for 10 mins followed by substrate addition and measured after 30 mins by fluorescence assay; set-up: species or system West Nile virus
Trypsin = Trypsin (Homo sapiens, UniProt P07477+P07478+P35030); test: Inhibition of human trypsin; type: protein assay

Compound	IC50 [2] [nM]	further results
C[C@H](NC(=O)[C@H](CCCNC(=N)N)NC(=O)[C@H](CCCCN)NC(=O)[C@H](CCCCN)NC(=O)Cc1ccccc1)c1ccccc1	–	inhibition (Zika virus [1]): 50%
N=C(N)NCCC[C@H](NC(=O)[C@H](CCCCN)NC(=O)[C@H](CCCCN)NC(=O)Cc1ccccc1)C(N)=O (PhAc-Lys-Lys-Arg-NH2)	3000	Ki [2]: 2400 nM; IC10 (Zika virus [3]): 300 nM; IC80 (Zika virus [3]): 10000 nM
CC(=O)N[C@H](C(=O)NCC(=O)N[C@@H](CCCCN)C(=O)N[C@@H](CCCNC(=N)N)C(N)=O)[C@@H](C)O (Ac-TGKR-NH2)	–	inhibition (Zika virus [4]): 40%
CC(=O)N[C@H](C(=O)NCC(=O)N[C@@H](CCCCN)C(=O)N[C@@H](CCCNC(=N)N)C(=O)O)[C@@H](C)O (Ac-TGKR-OH)	–	inhibition (Zika virus [4]): 40%
N=C(N)NCCC[C@H](NC(=O)[C@H](Cc1ccc(CN)cc1)NC(=O)[C@H](CCCCN)NC(=O)Cc1ccccc1)C(N)=O (PhAc-Lys-[Phe(4-CH2NH2)]-Arg-NH2)	–	inhibition (Zika virus [4]): 66%
CC(=O)N[C@@H](CCCCN)C(=O)N[C@@H](CCCCN)C(=O)N[C@H](C(=O)NCc1ccc(OCc2ccc(C(F)(F)F)cc2)cc1)c1ccccc1	41	EC50 (Zika virus [5]): 11200 nM; Ki [2]: 14 nM; Kd [6]: 23 nM; Stability [7]: Stable; inhibition (Zika virus [8]): Active
NCCCC[C@H](NC(=O)Cc1ccccc1)C(=O)N[C@@H](CCCCN)C(=O)N[C@H](C(=O)Nc1ccccc1)c1ccc(OCc2ccc(C(F)(F)F)cc2)cc1	3400	–
NCCCC[C@H](NC(=O)Cc1ccccc1)C(=O)N[C@@H](CCCCN)C(=O)N[C@H](C(=O)NCc1cc(Cl)cc(Cl)c1)c1ccccc1	320	–
N=C(N)NCCC[C@H](NC(=O)c1cccs1)C(=O)N[C@@H](CCCCN)C(=O)N[C@H](C(N)=O)c1ccc(OCc2ccc3[nH]ncc3c2)cc1	5300	–
NCCCC[C@H](NC(=O)Cc1ccccc1)C(=O)N[C@@H](CCCCN)C(=O)N[C@H](C(=O)NCc1ccc2c(c1)OCO2)c1ccc(OCc2ccc(C(F)(F)F)cc2)cc1	60	–
CC(=O)N[C@@H](CCCCN)C(=O)N[C@@H](CCCCN)C(=O)N[C@@H](CCCNC(=N)N)C(N)=O (Ac-Lys-Lys-Arg-NH2)	8400	–
CN(Cc1ccccc1)C(=O)N[C@@H](CCCCN)C(=O)N[C@@H](CCCCN)C(=O)N[C@@H](CCCNC(=N)N)C(N)=O	7400	–
N=C(N)NCCC[C@H](NC(=O)c1cccs1)C(=O)N[C@@H](CCCCN)C(=O)N[C@H](C(N)=O)c1ccc(OCCN2CCCCC2)cc1	3000	–
N=C(N)NCCC[C@H](NC(=O)[C@H](CCCCN)NC(=O)[C@H](CCCC(N)=O)NC(=O)Cc1ccccc1)C(N)=O (PhAc-[Aad](NH2)-Lys-Arg-NH2)	–	inhibition (Zika virus [1]): 40%
N=C(N)NCCC[C@H](NC(=O)c1cccs1)C(=O)N[C@@H](CCCCN)C(=O)N[C@@H](C(N)=O)c1ccc(OCc2ccc(C(F)(F)F)cc2)cc1	1600	–
NCCCC[C@H](NC(=O)Cc1ccncc1)C(=O)N[C@@H](CCCCN)C(=O)N[C@H](C(=O)NCc1ccccc1)c1ccc(OCc2ccc(C(F)(F)F)cc2)cc1	69	–
N=C(N)NCCC[C@H](NC(=O)[C@H](CCCCN)NC(=O)[C@H](CCCCN)NC(=O)Cc1cccnc1)C(N)=O	4490	–
N=C(N)NCCC[C@H](NC(=O)[C@H](Cc1ccc(N)cc1)NC(=O)[C@H](CCCCN)NC(=O)Cc1ccccc1)C(N)=O (PhAc-Lys-[Phe(4-NH2)]-Arg-NH2)	> 100000	–
NCCCC[C@H](NC(=O)[C@H](CCCCN)NS(=O)(=O)Cc1ccccc1)C(=O)N[C@H](C(=O)NCc1ccccc1)c1ccc(OCc2ccc(C(F)(F)F)cc2)cc1	1800	–
NCCCCC(NC(=O)Cc1ccccc1)C(=O)N[C@@H](CCCCN)C(=O)NC(C(=O)NCc1ccccc1)c1ccc(OCc2ccc(C(F)(F)F)cc2)cc1 (single isomer, unassigned)	1120	–
N=C(N)NCCC[C@H](NC(=O)c1cccs1)C(=O)N[C@@H](CCCCN)C(=O)N[C@@H](C(=O)NCc1ccccc1)c1ccc(OCc2ccc(C(F)(F)F)cc2)cc1	920	–
N=C(N)CCCC[C@H](NC(=O)[C@H](CCCCN)NC(=O)[C@H](Cc1ccc(C(N)=O)cc1)NC(=O)Cc1ccccc1)C(N)=O	42300	–

Compound	IC50 [2] [nM]	further results
N=C(N)NCCC[C@H](NC(=O)c1cccs1)C(=O)N[C@@H](CCCCN)C(=O)NC(C(N)=O)c1cccc(OCc2ccc(C(F)(F)F)cc2)c1 (mixture of isomers)	6400	–
NCCCC[C@H](NC(=O)Cc1ccccc1)C(=O)N[C@@H](CCCCN)C(=O)N[C@H](C(=O)NCc1cccnc1)c1ccc(OCc2ccc(C(F)(F)F)cc2)cc1	280	–
N=C(N)NCCC[C@H](NC(=O)[C@H](CCCCN)NC(=O)[C@H](CCCCN)NC(=O)Cc1cccs1)C(N)=O	16500	–
N=C(N)NCCC[C@H](NC(=O)[C@H](CCCCN)NC(=O)CNC(=O)Cc1ccccc1)C(N)=O (PhAc-Gly-Lys-Arg-NH2)	–	inhibition (Zika virus [4]): 40%
N=C(N)NCCC[C@H](NC(=O)[C@H](CCCCN)NC(=O)[C@H](CCCCN)NC(=O)Cc1ccccc1)C(=O)NCc1cccnc1	10400	–
NCCCC[C@H](NC(=O)Cc1ccccc1)C(=O)N[C@@H](CCCCN)C(=O)N[C@H](C(=O)NCC1CCCCC1)c1ccc(OCc2ccc(C(F)(F)F)cc2)cc1	80	–
CC(=O)N[C@@H](CCCCN)C(=O)N[C@@H](CCCCN)C(=O)N[C@H](C(=O)NCc1ccccc1)c1ccc(OCc2ccc(C(F)(F)F)cc2)cc1	28	EC50 (Zika virus [5]): 8500 nM; Ki [2]: 7 nM; Kd [6]: 11 nM; Stability [7]: Stable; inhibition (Zika virus [8]): Active; IC50 (Genome polyprotein): 200 nM; IC50 [9]: 800 nM; IC50 (Trypsin): 2300 nM
NCCCC[C@H](NC(=O)c1ccccc1)C(=O)N[C@@H](CCCCN)C(=O)N[C@H](C(=O)NCc1ccccc1)c1ccc(OCc2ccc(C(F)(F)F)cc2)cc1	90	–
N=C(N)NCCC[C@H](NC(=O)c1cccs1)C(=O)N[C@@H](CCCCN)C(=O)NC(C(N)=O)c1ccc(-c2ccc(C(F)(F)F)cc2)cc1 (mixture of isomers)	6100	–
NCCCC[C@H](NC(=O)Cc1ccccc1)C(=O)N[C@@H](CCCCN)C(=O)N[C@H](C(=O)NCc1ncco1)c1ccc(OCc2ccc(C(F)(F)F)cc2)cc1	1500	–
N=C(N)NCCC[C@H](NC(=O)[C@H](CCCCN)NC(=O)[C@H](Cc1cccc(CN)c1)NC(=O)Cc1ccccc1)C(N)=O	37500	–
N=C(N)NCCC[C@H](NC(=O)c1cccs1)C(=O)N[C@@H](CCCCN)C(=O)NCc1ccc(OCc2ccc(C(F)(F)F)cc2)cc1	8200	–
N=C(N)NCCC[C@H](NC(=O)[C@H](CCCCN)NC(=O)CNC(=O)Cc1ccccc1)C(=O)O (PhAc-Gly-Lys-Arg-OH)	–	inhibition (Zika virus [4]): 40%
NCCCC[C@H](NC(=O)Cc1ccccc1)C(=O)N[C@@H](CCCCN)C(=O)N[C@H](C(N)=O)c1ccc(OCc2ccc(C(F)(F)F)cc2)cc1	9200	–
N=C(N)NCCC[C@H](NC(=O)[C@H](CCCCN)NC(=O)[C@H](CCCCN)NC(=O)Cc1ccccc1)C(=O)NCc1ccccc1 (PhAc-Lys-Lys-Arg-NHBn)	7900	–
NCCCC[C@H](NC(=O)Cc1ccc(Cl)c(Cl)c1)C(=O)N[C@@H](CCCCN)C(=O)N[C@H](C(=O)NCc1ccccc1)c1ccc(OCc2ccc(C(F)(F)F)cc2)cc1	170	–
COc1ccc(CC(=O)N[C@@H](CCCCN)C(=O)N[C@@H](CCCCN)C(=O)N[C@H](C(=O)NCc2ccccc2)c2ccc(OCc3ccc(C(F)(F)F)cc3)cc2)cc1	270	–
NCCCC[C@H](NC(=O)Cc1ccccc1)C(=O)N[C@@H](CCCCN)C(=O)N[C@H](C(=O)NCc1ccccc1)c1ccc(OCc2ccc(C(F)(F)F)cc2)cc1	90	–
NCCCC[C@H](NC(=O)Cc1ccccc1)C(=O)N[C@@H](CCCCN)C(=O)N[C@@H](C(=O)NCc1ccccc1)c1ccccc1	1900	–
N=C(N)NCCC[C@H](NC(=O)[C@H](CCCCN)NC(=O)[C@H](CCCCN)NC(=O)Cc1ccccc1)C(=O)NCCO (PhAc-Lys-Lys-Arg-NHCH2CH2OH)	10800	–
N=C(N)NCCC[C@H](NC(=O)[C@H](CCCCN)NC(=O)[C@H](CCCCN)NC(=O)CCc1ccccc1)C(N)=O (Hydrocinnamoyl-Lys-Lys-Arg-NH2)	9350	–
N=C(N)NCCC[C@H](NC(=O)[C@H](Cc1ccc(OCCN)cc1)NC(=O)[C@H](CCCCN)NC(=O)Cc1ccccc1)C(N)=O (PhAc-Lys-[AEF]-Arg-NH2)	> 100000	–
